Test results from US10689363B2 (Merck Patent GmbH, priority 2017, dated 2020).
In brackets after ≈: the same amount, converted by molar mass. Like-named read-outs stand apart in the source and are kept apart here.

Columns and labels:
Type in all cases: physicochemical
[1] = Water Vapour Sorption isotherm (25° C., DVS-Intrinsic), hygroscopicity acc. to Ph. Eur. 5.11.; settings: for water uptake levels: 25° C.
Procedure: (§1) (based on multiple measurements on different samples of form A2). […] DSC scan of form A2 was acquired on a Mettler-Toledo DSC 821 with a heating rate of 50 K/min, using nitrogen purge gas at 50 mL/min. TGA scan of form A2 was acquired on a Mettler-Toledo TGA 851 with a heating rate of 5 K/min, using nitrogen purge gas at 50 mL/min. […] Eur. Criteria (section 5.11.). Water Vapour Sorption isotherm was acquired on a DVS-Intrinsic system from SMS.
(based on multiple measurements on different samples of form NF5). […] Eur. Criteria (section 5.11.). […] Water Vapour Sorption isotherm was acquired on a DVS-Intrinsic system from SMS.
(based on multiple measurements on one sample of form NF6). […] Eur. Criteria (section 5.11.). […] Water Vapour Sorption isotherm was acquired on a DVS-Intrinsic system from SMS.
Eur. Criteria (section 5.11.). […] Water Vapour Sorption isotherm was acquired on a DVS-Intrinsic system from SMS.
as §1, with “Other physical properties of” for “(based on multiple measurements on different samples of”, “form Fumarate-NF1 include the following: ^1H-NMR spectroscopic data reveal a API:Fumarate molar ratio of 1:1.” for “form A2).”, “form Fumarate-NF1” for “form A2”, “of 5” for “of 50”, “5.11.). […]” for “5.11.).”
Other physical properties of form Maleate-NF1 include the following: ^1H-NMR spectroscopic data reveal a API:Maleate molar ratio of 1:1. […] DSC scan of form Maleate-NF1 was acquired on a Mettler-Toledo DSC 821 with a heating rate of 5 K/min, using nitrogen purge gas at 50 mL/min. TGA scan of form Maleate-NF1 was acquired on a Mettler-Toledo TGA 851 with a heating rate of 5 K/min, using nitrogen purge gas at 50 mL/min. […] Form Maleate-NF1 can be classified as non-hygroscopic according to Ph. Eur. Criteria (section 5.11.). […] Water Vapour Sorption isotherm was acquired on a DVS-Intrinsic system from SMS.
Other physical properties of form Citrate-NF1 include the following: ^1H-NMR spectroscopic data reveal a API:Citrate molar ratio of 1:1. […] DSC scan of form Citrate-NF1 was acquired on a Mettler-Toledo DSC 821 with a heating rate of 5 K/min, using nitrogen purge gas at 50 mL/min. TGA scan of form Citrate-NF1 was acquired on a Mettler-Toledo TGA 851 with a heating rate of 5 K/min, using nitrogen purge gas at 50 mL/min. […] Eur. Criteria (section 5.11.). […] Water Vapour Sorption isotherm was acquired on a DVS-Intrinsic system from SMS.
(based on multiple measurements on different samples of form A1). […] DSC scan of form A1 was acquired on a Mettler-Toledo DSC 821 with a heating rate of 50 K/min, using nitrogen purge gas at 50 mL/min. TGA scan of form A1 was acquired on a Mettler-Toledo TGA 851 with a heating rate of 5 K/min, using nitrogen purge gas at 50 mL/min. […] Eur. Criteria (section 5.11.). […] Water Vapour Sorption isotherm was acquired on a DVS-Intrinsic system from SMS. […] Dissolution level of form A1 in Fasted-State Simulated Intestinal Fluid [FaSSIF, pH 6.5] at 37° C. was determined to be approx. 36 μg/mL (after 2 h), and dissolution level of form A1 in Fed-State Simulated Intestinal Fluid [FeSSIF, pH 5.0] at 37° C. was determined to be approx. 214 μg/mL (after 2 h), respectively (see example 11).
All forms were characterized according to standard methods which are found in e.g. Rolf Hilfiker, ‘Polymorphism in the Pharmaceutical Industry’. Wiley-VCH. Weinheim 2006 (Chapter 6: X-Ray Diffraction. Chapter 6: Vibrational Spectroscopy. Chapter 3: Thermal Analysis, Chapter 9: Water Vapour Sorption, and references therein); and H. G. Brittain, ‘Polymorphism in Pharmaceutical Solids. Vol. 95. Marcel Dekker Inc., New York 1999 (Chapter 6 and references therein).

[2] = Mini-dissolution in FaSSIF / FeSSIF medium at 37° C.; settings: for Dissolution levels in FaSSIF pH 6.5: FaSSIF pH 6.5, 37° C.; for Dissolution levels in FeSSIF pH 5.0: FeSSIF pH 5.0, 37° C.
Procedure: All dispersions were agitated at 37° C. for up to 2 hours. At defined time intervals (30 min. 60 min, 120 min), sample aliquots of homogeneous dispersions were withdrawn by a syringe, and filtrated via syringe filter adapters (PTFE, 0.45 μm).

[3] = Thermodynamic solubility (24 h, 37° C.) in FaSSIF medium or USP Phosphate buffer; settings: for solubility thermodynamic at 24 h: 37 °C, thermodynamic from solid
[4] = 120 min (2 h), listed as form Succinate-NF1
[5] = 120 min (2 h), listed as form Malonate-NF1
[6] = 120 min (2 h), listed as form Oxalate-NF1

| hygroscopicity classification according to Ph. Eur. Criteria (section 5.11.) [1] | Dissolution levels in FaSSIF pH 6.5 ([2]; 30 min) [μg/mL] | Dissolution levels in FaSSIF pH 6.5 ([2]; 60 min) [μg/mL] | Dissolution levels in FaSSIF pH 6.5 ([2]; 120 min (2 h)) [μg/mL] | dissolution levels (2 h), factor higher vs form A1 ([2]; FaSSIF) | Dissolution levels in FeSSIF pH 5.0 ([2]; 30 min) [μg/mL] | Dissolution levels in FeSSIF pH 5.0 ([2]; 60 min) [μg/mL] | Dissolution levels in FeSSIF pH 5.0 ([2]; 120 min (2 h)) [μg/mL] | dissolution levels (2 h), factor higher vs form A1 ([2]; FeSSIF) | SMILES | also measured |
| --- | --- | --- | --- | --- | --- | --- | --- | --- | --- | --- |
| Slightly hygroscopic |  |  |  |  |  |  |  |  | C=CC(=O)N1CCC(CNc2ncnc(N)c2-c2ccc(Oc3ccccc3)cc2)CC1.O=C(O)CCC(=O)O [Fumarate-NF1, 1-(4-{[6-Amino-5-(4-phenoxy-phenyl)-pyrimidin-4-ylamino]-methyl}-piperidin-1-yl)-propenone] | hygroscopicity classification according to Ph. Eur. Criteria (section 5.11.) ([1]; listed as form Fumarate-NF1): slightly hygroscopic; water uptake levels ([1]; relative humidity range 0-80% rh, listed as form Fumarate-NF1): < 0.5 wt % |
| Slightly hygroscopic | 92 | 95 | 100 | ~3 | 625 | 708 | 743 | ~3.5 | C=CC(=O)N1CCC(CNc2ncnc(N)c2-c2ccc(Oc3ccccc3)cc2)CC1.O=C(O)CCC(=O)O [Succinate-NF1, 1-(4-{[6-Amino-5-(4-phenoxy-phenyl)-pyrimidin-4-ylamino]-methyl}-piperidin-1-yl)-propenone] | hygroscopicity classification according to Ph. Eur. Criteria (section 5.11.) ([1]; listed as form Succinate-NF1): slightly hygroscopic; water uptake levels ([1]; relative humidity range 0-80% rh, listed as form Succinate-NF1): ≤ 2.0 wt %; Dissolution levels in FaSSIF pH 6.5 [2, 4]: approx. 100 μg/mL; Dissolution levels in FeSSIF pH 5.0 [2, 4]: approx. 743 μg/mL |
| Slightly hygroscopic | 47 | 53 | 75 | ~2 | 651 | 694 | 740 | ~3.5 | C=CC(=O)N1CCC(CNc2ncnc(N)c2-c2ccc(Oc3ccccc3)cc2)CC1.O=C(O)CCC(=O)O [Malonate-NF1, 1-(4-{[6-Amino-5-(4-phenoxy-phenyl)-pyrimidin-4-ylamino]-methyl}-piperidin-1-yl)-propenone] | hygroscopicity classification according to Ph. Eur. Criteria (section 5.11.) ([1]; listed as form Malonate-NF1): slightly hygroscopic; water uptake levels ([1]; relative humidity range 0-80% rh, listed as form Malonate-NF1): < 0.5 wt %; Dissolution levels in FaSSIF pH 6.5 [2, 5]: approx. 75 μg/mL; Dissolution levels in FeSSIF pH 5.0 [2, 5]: approx. 740 μg/mL |
| Slightly hygroscopic | 50 | 54 | 58 | ~1.5 | 600 | 700 | 740 | ~3.5 | C=CC(=O)N1CCC(CNc2ncnc(N)c2-c2ccc(Oc3ccccc3)cc2)CC1.O=C(O)CCC(=O)O [Oxalate-NF1, 1-(4-{[6-Amino-5-(4-phenoxy-phenyl)-pyrimidin-4-ylamino]-methyl}-piperidin-1-yl)-propenone] | hygroscopicity classification according to Ph. Eur. Criteria (section 5.11.) ([1]; listed as form Oxalate-NF1): slightly hygroscopic; water uptake levels ([1]; relative humidity range 0-80% rh, listed as form Oxalate-NF1): < 1.0 wt %; Dissolution levels in FaSSIF pH 6.5 [2, 6]: approx. 58 μg/mL; Dissolution levels in FeSSIF pH 5.0 [2, 6]: approx. 740 μg/mL |
| slightly hygroscopic |  |  |  |  |  |  |  |  | C=CC(=O)N1CCC(CNc2ncnc(N)c2-c2ccc(Oc3ccccc3)cc2)CC1 [form A2, 1-(4-{[6-Amino-5-(4-phenoxy-phenyl)-pyrimidin-4-ylamino]-methyl}-piperidin-1-yl)-propenone] | hygroscopicity classification according to Ph. Eur. Criteria (section 5.11.) ([1]; listed as A2): Slightly hygroscopic; water uptake levels ([1]; relative humidity range 0-98% rh): ≤ 1 wt %; water uptake levels ([1]; relative humidity range 90-98% rh): ≤ 2 wt %; thermodynamic solubility compared to form A1 (in words) [3]: higher; thermodynamic solubility, factor higher vs form A1 ([3]; FaSSIF): ~1.5; solubility thermodynamic at 24 h ([3]; FaSSIF medium, pH 6.5, fassif, FaSSIF pH 6.5, 37° C., read-out: Thermodynamic solubility FaSSIF pH 6.5): ~33 µg/mL (≈ 76.8 µM); thermodynamic solubility, factor higher vs form A1 ([3]; PBS buffer pH 7.4): ~2; solubility thermodynamic at 24 h ([3]; USP phosphate buffer, pH 7.4, aqueous buffer, USP Phosphate buffer pH 7.4, 37° C., read-out: Thermodynamic solubility PBS buffer 7.4): ~27 µg/mL (≈ 62.9 µM) |
| Non-hygroscopic |  |  |  |  |  |  |  |  | C=CC(=O)N1CCC(CNc2ncnc(N)c2-c2ccc(Oc3ccccc3)cc2)CC1.O=C(O)CCC(=O)O [Maleate-NF1, 1-(4-{[6-Amino-5-(4-phenoxy-phenyl)-pyrimidin-4-ylamino]-methyl}-piperidin-1-yl)-propenone] | hygroscopicity classification according to Ph. Eur. Criteria (section 5.11.) ([1]; listed as form Maleate-NF1): non-hygroscopic; water uptake levels ([1]; relative humidity range 0-80% rh, listed as form Maleate-NF1): < 0.5 wt % |
| Slightly hygroscopic |  |  |  |  |  |  |  |  | C=CC(=O)N1CCC(CNc2ncnc(N)c2-c2ccc(Oc3ccccc3)cc2)CC1.O=C(O)CCC(=O)O [Citrate-NF1, 1-(4-{[6-Amino-5-(4-phenoxy-phenyl)-pyrimidin-4-ylamino]-methyl}-piperidin-1-yl)-propenone] | hygroscopicity classification according to Ph. Eur. Criteria (section 5.11.) ([1]; listed as form Citrate-NF1): slightly hygroscopic; water uptake levels ([1]; relative humidity range 0-80% rh, listed as form Citrate-NF1): < 2.0 wt % |
